Measurements published in patent publication US9254288B2, “Susceptibility of tumors to tyrosine kinase inhibitors and treatment thereof” (THE TRANSLATIONAL GENOMICS RESEARCH INSTITUTE, priority 2012, dated 2016).

Experiments:
BaF3/FGFR2b N550K = experiment: BaF3 cell viability (ViaLight), FGFR2b N550K; type: cell-based, murine; details: for activity against or resistance of N550K, cell viability: BaF3 N550K
BaF3 FGFR2 K660E = experiment: BaF3 cell viability, FGFR2 K660E
Experimental: (§1) pEF1a.FGFR2b.IRES.neo or the various FGFR2b mutant plasmids were introduced into BaF3 cells using the Amaxa nucleofector kit V, according to the manufacturer's instructions (Amaxa, Walkersville, Md.). Cells were selected in growth media containing 1200 μg/ml G418 and 5 ng/ml IL3 for 14 days and frozen down.
(§2) After 72 hours, cell viability was measured using the ViaLight kit (Lonza, Walkersville, Md.). Values were normalized to DMSO vehicle control wells and IC50 values generated by nonlinear regression analysis with variable slope using Prism software version 4.0c (GraphPad Software, San Diego, Calif.). […] Following 72 hours of drug treatment, cell viability was assessed using the CyQUANT Cell Proliferation Assay Kit (Life Technologies, Carlsbad, Calif.). Values were normalized to DMSO vehicle control wells and IC50 values calculated as described above. Proliferation assays were performed in triplicate on two independent days and the results averaged.

[1] = system: stable BaF3-FGFR2 cells, dovitinib-resistant FGFR2 mutants; experiment: BaF3 cell viability, panel of dovitinib-resistant FGFR2 mutations; details: FGF10-induced proliferation
Experimental: as §1, §2

BaF3/FGFR2b wildtype = experiment: BaF3 cell viability (ViaLight), wild-type FGFR2b; type: cell-based, murine; details: Mus musculus, BaF3, 72 h, read-out: IC50 value in BaF3/FGFR2b wildtype
BaF3 FGFR2 V565I = experiment: BaF3 cell viability, FGFR2b V565I gatekeeper mutant; type: cell-based, murine
[2] = system: BaF3 cells expressing the E719G mutant FGFR2; experiment: BaF3 cell viability, FGFR2b E719G; type: cell-based, murine; details: E719G alone vs wild-type FGFR2
EI = experiment: Endometrial cancer cell viability, EI; type: cell-based; details: 72 h
EJ = experiment: Endometrial cancer cell viability, EJ; type: cell-based; details: Homo sapiens, 72 h
EN1078D = experiment: Endometrial cancer cell viability, EN1078D; type: cell-based; details: 72 h
[3] = system: JHUEM-2 cells expressing FGFR2N550K; experiment: JHUEM-2 cells stably expressing FGFR2N550K, cell viability; type: cell-based; details: JHUEM-2 FGFR2N550K vs control lines (FIG. 8A)
AN3CA = details: cited from earlier work
MFE296 = details: MFE296, carries N550K FGFR2 mutation; cited from earlier work
MFE280 = details: MFE280, FGFR-mutant EC line; cited from earlier work
[4] = system: endometrial cancer cell lines; experiment: Endometrial cancer cell line panel viability (CyQUANT); details: FGFR2 mutant and wild-type endometrial cancer lines, 72 hours
Experimental: as §2

| Structure (SMILES) | activity against or resistance of N550K, cell viability (BaF3/FGFR2b N550K) | activity against K660E activating mutation, cell viability (BaF3 FGFR2 K660E) | sensitivity or resistance of the FGFR2 mutation panel, cell viability [1] | IC50 (BaF3/FGFR2b wildtype) [nM] | fold difference in IC50, N550K versus wildtype (BaF3/FGFR2b N550K; BaF3/FGFR2b N550K vs wildtype) | IC50 (BaF3/FGFR2b N550K; Mus musculus, BaF3, 72 h, read-out: IC50 value in N550K resistance cells) [nM] | activity against or resistance of V565I gatekeeper mutation, cell viability (BaF3 FGFR2 V565I) | resistance conferred by E719G mutation [2] | IC50 (EI) [nM] | IC50 (EJ) [nM] | IC50 (EN1078D) [nM] | fold increase in the IC50 [3] [fold] | growth arrest and cell death (AN3CA; FGFR-mutant EC line) | sensitivity to FGFR inhibition (AN3CA; carries N550K FGFR2 mutation) | sensitivity to FGFR inhibition (MFE296) | growth arrest and cell death (MFE280) | order of sensitivity across the cell line panel [4] |
| --- | --- | --- | --- | --- | --- | --- | --- | --- | --- | --- | --- | --- | --- | --- | --- | --- | --- |
| CCN1CCN(c2ccc(Nc3cc(N(C)C(=O)Nc4c(Cl)c(OC)cc(OC)c4Cl)ncn3)cc2)CC1 [BGJ398] | good activity | good activity | all FGFR2 kinase mutations except the V565I from the mutation panel are sensitive |  |  |  |  |  |  |  |  |  |  |  |  |  |  |
| CNC(=O)c1cc(Oc2ccc(NC(=O)Nc3cc(C(C)(C)C)nn3-c3ccc4ncccc4c3)c(F)c2)ccn1 [DCC2036] |  |  | most FGFR2 kinase mutations except N550K from this BaF3 resistance screen are sensitive |  |  |  |  |  |  |  |  |  |  |  |  |  |  |
| CCN(CC)CCCCNc1ncc2cc(-c3cc(OC)cc(OC)c3)c(NC(=O)NC(C)(C)C)nc2n1 [PD173074] | greatest resistance |  | imparted resistance | 4.5 | over 170 fold | 776 | greatest resistance | did not induce resistance | > 4000 | > 4000 | > 4000 | ~5 | induced G1 growth arrest and cell death | sensitive | sensitive | induced G1 growth arrest and cell death | least sensitive |
